According to patent US8518895B2, “Method for treating hyponatremia employing an SGLT2 inhibitor and composition containing same” (Bristol-Myers Squibb Company, priority 2008, dated 2013):

How the values were obtained:
[1] = system: Healthy Normal Volunteers; assay: Urinary glucose excretion over 24 hr in healthy normal volunteers after SGLT2 inhibitors; format: in vivo, human
patients with diabetes = details: patients with diabetes, 5, 25 or 100 mg, FIG. 2
Excerpt: The levels of urine glucose of all subjects are shown in the plot and the mean urine glucose is in the darker lines.

type 2 diabetic patients = system: type 2 diabetic patients
Excerpt: C-aryl glucoside SGLT2 inhibitors are known to reduce blood glucose levels in diabetic patients, see U.S. Pat. No. 6,774,112, which is incorporated herein by reference in its entirety, but not known to increase urine volume. […] Metformin reduces plasma glucose concentration by non-renal mechanisms and is not known to induce glucosuria. […] On day 1 and day 14, the patients were examined for the levels of glucosuria and changes in urine volumes.

diabetic patients = assay: 12-week treatment of diabetic patients: urine glucose, HbA1C, urine volume (Table 5)
[2] = diabetic patients, 2.5-50 mg, after 12 weeks of treatment

Structure (SMILES): CCOc1ccc(Cc2cc([C@@H]3O[C@H](CO)[C@@H](O)[C@H](O)[C@H]3O)ccc2Cl)cc1 [Dapagliflozin, dapagliflozin]
- Glucose Output over 24 hr ([1]; dose 5 mg): ~32 g
- Glucose Output over 24 hr ([1]; dose 20 mg): ~64 g

Structure (SMILES): CCOc1ccc(Cc2cc([C@@H]3O[C@H](CO)[C@@H](O)[C@H](O)[C@H]3O)ccc2Cl)cc1 [dapagliflozin PGS]
- urine glucose excretion compared to placebo (patients with diabetes): higher levels of urine glucose excretion
- fasting serum glucose (FSG) levels (type 2 diabetic patients; two-week period): Dose-dependent reduction
- postprandial glucose levels in oral glucose tolerance tests (OGTT) (type 2 diabetic patients; two-week period): reduced
- urine volumes (type 2 diabetic patients; two-week period): no increase
- urinary glucose levels within a 24-hour time period (type 2 diabetic patients; versus placebo, FIG. 3): increased
- Urine Output (mL), change from baseline at week 12 (diabetic patients; 2.5 mg, n = 59, mean ± standard deviation): 106.62 ± 606.88 mL
- Urine Output (mL), change from baseline at week 12 (diabetic patients; 5 mg, n = 58, mean ± standard deviation): 339.96 ± 551.34 mL
- Urine Output (mL), change from baseline at week 12 (diabetic patients; 10 mg, n = 47, mean ± standard deviation): 374.49 ± 741.62 mL
- Urine Output (mL), change from baseline at week 12 (diabetic patients; 20 mg, n = 59, mean ± standard deviation): 374.91 ± 723.13 mL
- Urine Output (mL), change from baseline at week 12 (diabetic patients; 50 mg, n = 56, mean ± standard deviation): 470.26 ± 797.51 mL
- increase in urine volume (diabetic patients; diabetic patients treated for 12 weeks): 5-20%
- OGT (diabetic patients; [2]): improved
- glucose excreted in urine every day (diabetic patients; [2]): 50 to 60 g
- reduced HbA1C levels (diabetic patients; [2]): 0.71-0.9%
- Side effects (diabetic patients; observed in some individuals, 12 weeks): urinary tract infection, dizziness, or vaginal infection

Structure (SMILES): CN(C)C(=N)N=C(N)N [Metformin, metformin, reference compound]
- Urine Output (mL), change from baseline at week 12 (diabetic patients; Metformin group, N = 56, mean ± standard deviation): -95.84 ± 775.41 mL
- HbA1C levels (diabetic patients; patients treated with 1500 mg metformin): 0.73%

Structure (SMILES): COc1ccc(Cc2sccc2O[C@@H]2O[C@H](CO)[C@@H](O)[C@H](O)[C@H]2O)cc1 [AVE 2268]
- Glucose Output over 24 hr ([1]; dose 1200 mg): 14 g
- Glucose Output over 24 hr ([1]; dose 2000 mg): 21 g
